The text below walks through data of the supplement of paper PMC11208160.
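Further: IS621 bridge recombinase in Escherichia coli cells against a fixed T5 target plasmid.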

The nature of this data set: recombinant UMI read abundance after kanamycin selection (control-corrected) (log10(CPM+1)); higher = more efficient recombination; extreme values may be limits of the assay; sequences stand for … in AGTGCAGAGAAAATCGGCCAGTTTTCTCTGCCTGCAGTCCGCATGCCGTGGGACCCCTTGGGTTCTAACCTGTTGCCTAGATTTATGCAGCGGACTGCCTTTCTCCCAAAGTGATAAACCGG…AGGTTGGTTTCACT; site = the 11-nt donor. How it is done:
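Pooled E. coli donor-specificity screen for the IS621 bridge recombinase. Each library member carries a reprogrammed 11-nt donor and a full-length LE bridge RNA expressed in cis from the natural promoter, with a paired donor-binding loop (8-nt LDG + 4-nt RDG) and a target-binding loop fixed to T5. It is co-electroporated with a T5 target plasmid; recombinase is induced with 0.07 mM IPTG and recombinants are selected on kanamycin. UMIs are counted as CPM, averaged over two biological replicates and corrected by the unselected control. Molecule = full bridge RNA written as DNA, built from the T5 scaffold: LDG = donor specificity nt 1-8, RDG = reverse complement of nt 8-11.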
In the case of “AATTATCCATGGACCGGTTTTCCCGGTAATCCGTATTTGGA (site AATTATCCTTC)”, the “recombinant UMI read abundance (log10)” value was determined as 0.

With “AATTATCCATGGACCGGTTTTCCCGGTAATCCGTATTTGGA (site AATTATGCTTC)”, the “recombinant UMI read abundance (log10)” value worked out at 0.0173.

With “AATTATCCATGGACCGGTTTTCCCGGTAATCCGTATTTGGA (site AATTATTCTTC)”, the “recombinant UMI read abundance (log10)” value worked out at 0.322.

In the case of “AATTATGCATGGACCGGTTTTCCCGGTAATCCGTATTTGGA (site AAATATGCTTC)”, the “recombinant UMI read abundance (log10)” value amounted to 1.34.

With “AATTATGCATGGACCGGTTTTCCCGGTAATCCGTATTTGGA (site AACTATGCTTC)”, the “recombinant UMI read abundance (log10)” value is 1.02.

For “AATTATGCATGGACCGGTTTTCCCGGTAATCCGTATTTGGA (site AAGTATGCTTC)”, the “recombinant UMI read abundance (log10)” value came out at 1.19.

“AATTATGCATGGACCGGTTTTCCCGGTAATCCGTATTTGGA (site AATAATGCTTC)”: the “recombinant UMI read abundance (log10)” value is 0.535.

Turning to “AATTATGCATGGACCGGTTTTCCCGGTAATCCGTATTTGGA (site AATCATGCTTC)”, the “recombinant UMI read abundance (log10)” value was 0.445.

With “AATTATGCATGGACCGGTTTTCCCGGTAATCCGTATTTGGA (site AATGATGCTTC)”, the “recombinant UMI read abundance (log10)” value stood at 0.482.

Regarding “AATTATGCATGGACCGGTTTTCCCGGTAATCCGTATTTGGA (site AATTAAGCTTC)”, the “recombinant UMI read abundance (log10)” value is 0.54.

“AATTATGCATGGACCGGTTTTCCCGGTAATCCGTATTTGGA (site AATTACGCTTC)”: the “recombinant UMI read abundance (log10)” value was found to be 0.439.

For “AATTATGCATGGACCGGTTTTCCCGGTAATCCGTATTTGGA (site AATTAGGCTTC)”, the “recombinant UMI read abundance (log10)” value amounted to 0.38.

Regarding “AATTATGCATGGACCGGTTTTCCCGGTAATCCGTATTTGGA (site AATTATACTTC)”, the “recombinant UMI read abundance (log10)” value was 0.816.

Consider “AATTATGCATGGACCGGTTTTCCCGGTAATCCGTATTTGGA (site AATTATCCTTC)”, for which the “recombinant UMI read abundance (log10)” value was 0.447.

On to “AATTATGCATGGACCGGTTTTCCCGGTAATCCGTATTTGGA (site AATTATGCTAC)”, for which the “recombinant UMI read abundance (log10)” value was found to be 0.0199.

Regarding “AATTATGCATGGACCGGTTTTCCCGGTAATCCGTATTTGGA (site AATTATGCTCC)”, the “recombinant UMI read abundance (log10)” value worked out at 0.0288.

Consider “AATTATGCATGGACCGGTTTTCCCGGTAATCCGTATTTGGA (site AATTATGCTGC)”, for which the “recombinant UMI read abundance (log10)” value came out at 0.

For the sequence “AATTATGCATGGACCGGTTTTCCCGGTAATCCGTATTTGGA (site AATTATGCTTA)”, the “recombinant UMI read abundance (log10)” value was 0.00642.

“AATTATGCATGGACCGGTTTTCCCGGTAATCCGTATTTGGA (site AATTATGCTTC)”: the “recombinant UMI read abundance (log10)” value came out at 0.373.

“AATTATGCATGGACCGGTTTTCCCGGTAATCCGTATTTGGA (site AATTATGCTTG)”: the “recombinant UMI read abundance (log10)” value is 0.

As for “AATTATGCATGGACCGGTTTTCCCGGTAATCCGTATTTGGA (site AATTATGCTTT)”, the “recombinant UMI read abundance (log10)” value amounted to 0.359.

For “AATTATGCATGGACCGGTTTTCCCGGTAATCCGTATTTGGA (site AATTATTCTTC)”, the “recombinant UMI read abundance (log10)” value came to 0.941.

“AATTATGCATGGACCGGTTTTCCCGGTAATCCGTATTTGGA (site AATTCTGCTTC)”: the “recombinant UMI read abundance (log10)” value worked out at 0.313.

In the case of “AATTATGCATGGACCGGTTTTCCCGGTAATCCGTATTTGGA (site AATTGTGCTTC)”, the “recombinant UMI read abundance (log10)” value is 0.266.

As to “AATTATGCATGGACCGGTTTTCCCGGTAATCCGTATTTGGA (site AATTTTGCTTC)”, the “recombinant UMI read abundance (log10)” value was found to be 0.00678.

Regarding “AATTATGCATGGACCGGTTTTCCCGGTAATCCGTATTTGGA (site ACTTATGCTTC)”, the “recombinant UMI read abundance (log10)” value amounted to 0.937.

Take “AATTATGCATGGACCGGTTTTCCCGGTAATCCGTATTTGGA (site AGTTATGCTTC)”: the “recombinant UMI read abundance (log10)” value amounted to 1.09.

With “AATTATGCATGGACCGGTTTTCCCGGTAATCCGTATTTGGA (site ATTTATGCTTC)”, the “recombinant UMI read abundance (log10)” value turned out to be 1.25.

For “AATTATGCATGGACCGGTTTTCCCGGTAATCCGTATTTGGA (site CATTATGCTTC)”, the “recombinant UMI read abundance (log10)” value stood at 1.51.

Take “AATTATGCATGGACCGGTTTTCCCGGTAATCCGTATTTGGA (site GATTATGCTTC)”: the “recombinant UMI read abundance (log10)” value was 0.983.

Regarding “AATTATGCATGGACCGGTTTTCCCGGTAATCCGTATTTGGA (site TATTATGCTTC)”, the “recombinant UMI read abundance (log10)” value was 0.862.

On to “AATTATGCATGGACCGGTTTTCCCGGTAATCCGTATTTGGT (site AATTATGCTAC)”, for which the “recombinant UMI read abundance (log10)” value is 2.02.

For “AATTATGCATGGACCGGTTTTCCCGGTAATCCGTATTTGGT (site AATTATGCTCC)”, the “recombinant UMI read abundance (log10)” value was found to be 0.00684.

Take “AATTATGCATGGACCGGTTTTCCCGGTAATCCGTATTTGGT (site AATTATGCTGC)”: the “recombinant UMI read abundance (log10)” value was 0.

Turning to “AATTATGCATGGACCGGTTTTCCCGGTAATCCGTATTTGGT (site AATTATGCTTC)”, the “recombinant UMI read abundance (log10)” value was 0.0116.

With “AATTGCTCATGGACCGGTTTTCCCGGTAATCCGTATTTGCC (site AATTGCTCTGG)”, the “recombinant UMI read abundance (log10)” value was determined as 2.51.

Regarding “AATTGGGCATGGACCGGTTTTCCCGGTAATCCGTATTTGAA (site AATTGGGCTTT)”, the “recombinant UMI read abundance (log10)” value was determined as 0.399.

“AATTTGTCATGGACCGGTTTTCCCGGTAATCCGTATTTGAC (site AATATGTCTGT)”: the “recombinant UMI read abundance (log10)” value came to 0.

In the case of “AATTTGTCATGGACCGGTTTTCCCGGTAATCCGTATTTGAC (site AATCTGTCTGT)”, the “recombinant UMI read abundance (log10)” value came out at 0.

“AATTTGTCATGGACCGGTTTTCCCGGTAATCCGTATTTGAC (site AATGTGTCTGT)”: the “recombinant UMI read abundance (log10)” value was determined as 0.

For the sequence “AATTTGTCATGGACCGGTTTTCCCGGTAATCCGTATTTGAC (site AATTTGTCTGT)”, the “recombinant UMI read abundance (log10)” value was determined as 0.

Turning to “ACAAAATCATGGACCGGTTTTCCCGGTAATCCGTATTTGCA (site ACAAAATCTTG)”, the “recombinant UMI read abundance (log10)” value came to 1.3.

As for “ACAAAATCATGGACCGGTTTTCCCGGTAATCCGTATTTGCA (site ACAGTATCTTG)”, the “recombinant UMI read abundance (log10)” value came to 1.45.

“ACAAAGGCATGGACCGGTTTTCCCGGTAATCCGTATTTGCT (site AAAAAGGCTAG)”: the “recombinant UMI read abundance (log10)” value was determined as 0.

“ACAAAGGCATGGACCGGTTTTCCCGGTAATCCGTATTTGCT (site ACAAAGGCTAG)”: the “recombinant UMI read abundance (log10)” value stood at 2.57.

In the case of “ACAAAGGCATGGACCGGTTTTCCCGGTAATCCGTATTTGCT (site AGAAAGGCTAG)”, the “recombinant UMI read abundance (log10)” value is 0.

As to “ACAAAGGCATGGACCGGTTTTCCCGGTAATCCGTATTTGCT (site ATAAAGGCTAG)”, the “recombinant UMI read abundance (log10)” value worked out at 1.17.

Turning to “ACAACTACATGGACCGGTTTTCCCGGTAATCCGTATTTGTG (site ACAACTACTCA)”, the “recombinant UMI read abundance (log10)” value amounted to 0.844.

For the sequence “ACAACTACATGGACCGGTTTTCCCGGTAATCCGTATTTGTG (site ACACCTACTCA)”, the “recombinant UMI read abundance (log10)” value stood at 0.0441.

As to “ACAACTACATGGACCGGTTTTCCCGGTAATCCGTATTTGTG (site ACAGCTACTCA)”, the “recombinant UMI read abundance (log10)” value was 0.0923.

“ACAACTACATGGACCGGTTTTCCCGGTAATCCGTATTTGTG (site ACATCTACTCA)”: the “recombinant UMI read abundance (log10)” value stood at 0.146.

For “ACAAGAACATGGACCGGTTTTCCCGGTAATCCGTATTTGAG (site ACAAGAACTCT)”, the “recombinant UMI read abundance (log10)” value was 2.72.

As for “ACAAGAACATGGACCGGTTTTCCCGGTAATCCGTATTTGAG (site ACCAGAACTCT)”, the “recombinant UMI read abundance (log10)” value worked out at 0.645.

Consider “ACAAGAACATGGACCGGTTTTCCCGGTAATCCGTATTTGAG (site ACGAGAACTCT)”, for which the “recombinant UMI read abundance (log10)” value worked out at 1.41.

Turning to “ACAAGAACATGGACCGGTTTTCCCGGTAATCCGTATTTGAG (site ACTAGAACTCT)”, the “recombinant UMI read abundance (log10)” value was found to be 0.755.

In the case of “ACAAGGCCATGGACCGGTTTTCCCGGTAATCCGTATTTGAC (site AAAAGGCCTGT)”, the “recombinant UMI read abundance (log10)” value was 0.

In the case of “ACAAGGCCATGGACCGGTTTTCCCGGTAATCCGTATTTGAC (site ACAAGGCCTGT)”, the “recombinant UMI read abundance (log10)” value turned out to be 0.512.

Consider “ACAAGGCCATGGACCGGTTTTCCCGGTAATCCGTATTTGAC (site AGAAGGCCTGT)”, for which the “recombinant UMI read abundance (log10)” value stood at 0.

For the sequence “ACAAGGCCATGGACCGGTTTTCCCGGTAATCCGTATTTGAC (site ATAAGGCCTGT)”, the “recombinant UMI read abundance (log10)” value was 1.34.

As for “ACAAGTGCATGGACCGGTTTTCCCGGTAATCCGTATTTGGT (site ACAAGTGCTAC)”, the “recombinant UMI read abundance (log10)” value amounted to 2.04.

For “ACAAGTGCATGGACCGGTTTTCCCGGTAATCCGTATTTGGT (site ACCAGTGCTAC)”, the “recombinant UMI read abundance (log10)” value was 0.897.

Regarding “ACAAGTGCATGGACCGGTTTTCCCGGTAATCCGTATTTGGT (site ACGAGTGCTAC)”, the “recombinant UMI read abundance (log10)” value was 1.09.

Turning to “ACAAGTGCATGGACCGGTTTTCCCGGTAATCCGTATTTGGT (site ACTAGTGCTAC)”, the “recombinant UMI read abundance (log10)” value was 1.16.

Regarding “ACAATATCATGGACCGGTTTTCCCGGTAATCCGTATTTGCT (site ACAATATCTAG)”, the “recombinant UMI read abundance (log10)” value was determined as 2.64.

Regarding “ACAATATCATGGACCGGTTTTCCCGGTAATCCGTATTTGCT (site ACAGTATCTTG)”, the “recombinant UMI read abundance (log10)” value turned out to be 0.278.
